Source: patent US11249070B2, “Anti-cancer drug assessment method” (TOPPAN PRINTING CO., LTD., priority 2016, dated 2022)
Like-named read-outs stand apart in the source and are kept apart here.

What was measured:
[1] = test system: HT29; experiment: CNT with cetuximab and/or bevacizumab, 2D, spheroid, 3D (Example 4); assay type: cell-based, human; conditions: for CNT (%) Average value / CNT (%) Median value: cetuximab 1 mg/mL and/or bevacizumab 2 μg per well, 72 hours
Description: Moreover, for comparison, in place of the above cell structures, structures were produced by culturing cancer cells so as to form a single layer in a general culture container (2D method), and spheroids were produced by spheroid culture of a mixture of 2×10^6 NHDF, 3×10^4 HUVEC, and 2×10^4 HT29 (spheroid method).

[2] = test system: human colon cancer cell line HT29; experiment: CNT (remaining viable cell rate) with doxorubicin, 2D cultures vs 3D cell structures (Example 2); assay type: cell-based; conditions: doxorubicin 10 μM; for CNT (%) Average value: 72 hours
Description: The anti-cancer drug to be assessed was doxorubicin (product number: 046-21523, produced by Wako Pure Chemical Industries, Ltd.).
After termination of the culture, cell structures in which a cancer cell layer was laminated on a layer having a vascular network structure were obtained.
Moreover, for comparison, in place of the above cell structures, structures were constructed by culturing cancer cells so as to form a single layer in a general culture container (2D method), and the resulting 2D cultures were similarly cultured in the presence of doxorubicin. A vascular network was not formed in the obtained 2D cultures even when cancer cells and vascular endothelial cells were made to coexist.
Next, a suitable amount of tris buffer solution (50 mM, pH: 7.4) was added to the Transwell cell culture insert, and the liquid component was then removed. This series of processes was repeated 3 times. […] Thereafter, all of the solution was collected, and transferred to a 1.5-mL collection tube to which 300 μL of 0.25% trypsin-EDTA solution (produced by Invitrogen) had been previously added. […] Thereafter, all of the solution was collected, and transferred to a 1.5-mL collection tube.

[3] = test system: HT29; experiment: CNT with doxorubicin, vascular network in layer shape vs scattered (Example 3); assay type: cell-based, human; conditions: doxorubicin 10 μM, 72 hours
[4] = test system: HT29; experiment: CNT with doxorubicin, cell structures with or without semipermeable membrane (Example 9); assay type: cell-based, human; conditions: doxorubicin 10 μM, 72 hours
Description: The cell structures containing a cell layer containing cancer cells and a cell layer having a vascular network structure used herein were cell structures containing a cell layer in which two types of cells, i.e., NHDF and HUVEC, constituted a multilayer, and a cancer cell layer formed from HT29.
Separately, 2×10^4 HT29 was suspended in a suitable amount of culture medium to prepare a cancer cell suspension (step (a)). The HT29 used was previously fluorescently labeled (product number: PKH67GL, produced by SIGMA).
A cell structure 2 was obtained in the same manner as in the cell structure 1, except that a semipermeable membrane with a pore size of 0.4 μm was placed on a structure containing stromal cells, and a cancer cell suspension was seeded on the semipermeable membrane to form a cancer cell layer. […] In the cell structure 2, the cells constituting the cancer cell layer were completely separated from the cells constituting the stromal cell layer.
A cell structure 3 was obtained in the same manner as in the cell structure 1, except that a cancer cell suspension was first seeded in a Transwell cell culture insert to form a cancer cell layer, a semipermeable membrane with a pore size of 0.4 μm was placed on the cancer cell layer, and a stromal cell suspension was then seeded on the semipermeable membrane to form a stromal cell layer. […] In the cell structure 3, the cells constituting the cancer cell layer were completely separated from the cells constituting the stromal cell layer.
(§1) A cell structure 4 was obtained in the same manner as in the cell structure 2, except that a semipermeable membrane with a pore size of 8 μm was used. […] In the cell structure 4, the cells constituting the cancer cell layer and the cells constituting the stromal cell layer extended to be in contact with each other in the penetration part of the semipermeable membrane.
as §1, with “5” for “4”, “3,” for “2,”, “5,” for “4,”

[5] = test system: breast cancer cell line MCF-7; experiment: CNT with doxorubicin, 2D vs 3D (Example 14); assay type: cell-based, human; conditions: for CNT (%) Average value: 72 hours
Description: The general cytotoxic anti-cancer drug to be assessed was doxorubicin (product number: 046-21523, produced by Wako Pure Chemical Industries, Ltd.).

[6] = test system: lung cancer cell line NCI-H820; experiment: CNT with oxaliplatin, 2D vs 3D (Example 12); assay type: cell-based, human; conditions: for CNT (%): 72 hours, measured once
Procedure: (§2) Measurements were performed once for each culture condition.

[7] = test system: gastric cancer cell line NCI-N87; experiment: CNT with oxaliplatin, 2D vs 3D (Example 13); assay type: cell-based, human; conditions: for CNT (%): 72 hours, measured once
Procedure: as §2

[8] = test system: HT29; conditions: bevacizumab 2 μg per well in the combination, 72 hours
Description: (§3) The cell structures containing cancer cells and having a vascular network structure used herein were the cell structures produced in Example 5, and the cell culture container, culture media, and bevacizumab used herein were also the same as those used in Example 5.
(§4) After the cell structures were each dispersed in the same manner as in Example 2, and the obtained dispersions were stained with trypan blue, the number of viable cancer cells was counted to calculate CNT (%).

[9] = test system: HCT116; conditions: bevacizumab 2 μg per well in the combination, 72 hours
Description: as §3, §4

[10] = test system: HT29; conditions: oxaliplatin 100 μg/mL, bevacizumab 2 μg per well in combined use, 72 hours
Description: (§5) Furthermore, HT29 cells were used as the cancer cells.
(§6) After the cell structures were each dispersed in the same manner as in Example 2, and the obtained dispersions were stained with trypan blue, the number of viable cancer cells was counted to calculate CNT (%). Measurements were repeated three times for each culture condition.

[11] = test system: HT29; conditions: oxaliplatin 100 μg/mL, bevacizumab 2 μg per well in combined use
Procedure: as §5
Cell structures were produced in the same manner as in Example 5, except that HT29 cells were seeded in a Transwell cell culture insert in which a structure formed from NHDF and HUVEC was formed, centrifugation was performed to remove the liquid component, and the culture time in the CO2 incubator (37° C., 5% CO2) was changed to 24, 48, 72, or 96 hours.
as §6

[12] = regardless of the oxaliplatin concentration
[13] = Spheroid, oxaliplatin 100 μg/mL

In the case of bevacizumab, the CNT ([1]; 2D cultures and spheroids) is reported as “about 100%”, the “CNT (%) Average value” ([1]; 2D) is reported as 93.9% and the “CNT (%) Median value” ([1]; 2D) is reported as 99.3%. For the same compound, the “CNT (%) Average value” ([1]; 3D) was 105.2%, the “CNT (%) Median value” ([1]; 3D) was 112.7% and the “CNT (%) Average value” ([1]; Spheroid) was 108.6%. The “CNT (%) Median value” ([1]; Spheroid) was 113.8% and the CNT ([1]; cell structures of the present Example, 3D) was “about 100%”.

In the case of `COc1cccc2c1C(=O)c1c(O)c3c(c(O)c1C2=O)C[C@@](O)(C(=O)CO)C[C@@H]3O[C@H]1C[C@H](N)[C@H](O)[C@H](C)O1` [Doxorubicin, doxorubicin], the “CNT (%) Average value” ([2]; 2D, HT29 2 × 10^4 only) is reported as 6.87%, the “CNT (%) Average value” ([2]; 2D, HUVEC 2 × 10^4 + HT29 2 × 10^4) is reported as 21.40% and the “CNT (%) Average value” ([2]; 2D, NHDF 2 × 10^4 + HT29 2 × 10^4) is reported as 13.20%. The “effectiveness in 2D culture co-cultured with fibroblasts relative to 2D culture co-cultured with vascular endothelial cells” value ([2]; 2D) was “about two”, the “CNT of the cell structures relative to 2D culture” value ([2]; 3D cell structures vs 2D culture of only cancer cells and 2D culture of cancer cells and fibroblasts) was “at least 5 times” and the “CNT (%) Average value” ([2]; 3D, NHDF 1 × 10^6 + HUVEC 3 × 10^4 + HT29 2 × 10^4) was 28.22%. The “CNT (%) Average value” ([2]; 3D, NHDF 2 × 10^6 + HT29 2 × 10^4, no vascular network) was 29.77%, the “CNT (%) Average value” ([2]; 3D, NHDF 2 × 10^6 + HUVEC 3 × 10^4 + HT29 2 × 10^4) was 31.22% and the “CNT (%) Average value” ([3]; cell structure in which a vascular network structure is formed in a layer shape) was 31.22%. The “CNT (%) Average value” ([3]; cell structure in which a vascular network structure is scattered in the entire structure) was 31.06%, the “CNT (%) Average value” ([4]; Cell structure 1 (stromal cell layer - cancer cell layer)) was 31.22% and the “CNT (%) Average value” ([4]; Cell structure 2 (stromal cell layer - semipermeable membrane (0.4 μm) - cancer cell layer)) was 30.83%. For the same compound, the “CNT (%) Average value” ([4]; Cell structure 3 (cancer cell layer - semipermeable membrane (0.4 μm) - stromal cell layer)) was 32.68%, the “CNT (%) Average value” ([4]; Cell structure 4 (stromal cell layer - semipermeable membrane (8 μm) - cancer cell layer)) was 31.47% and the “CNT (%) Average value” ([4]; Cell structure 5 (cancer cell layer - semipermeable membrane (8 μm) - stromal cell layer)) was 33.03%. For the same compound, the “CNT (%) Average value” ([5]; 2D, Doxorubicin 1 μM) was 38.9%, the “CNT (%) Average value” ([5]; 2D, Doxorubicin 10 μM) was 12.1% and the “CNT (%) Average value” ([5]; 3D, Doxorubicin 1 μM) was 78.4%. For the same compound, the “CNT (%) Average value” ([5]; 3D, Doxorubicin 10 μM) was 48.9% and the “drug sensitivity, cell structures compared with 2D cultures” value ([5]; regardless of the doxorubicin concentration) was “drug sensitivity was lower”.

`O=C1[O][Pt]2([NH][C@@H]3CCCC[C@H]3[NH]2)[O]C1=O` [Oxaliplatin, oxaliplatin] was tested, and the “CNT (%)” value ([6]; 2D, oxaliplatin 1 μg/mL) was 62.9%, the “CNT (%)” value ([6]; 2D, oxaliplatin 10 μg/mL) was 21.0% and the “CNT (%)” value ([6]; 3D, oxaliplatin 1 μg/mL) was 78.2%. For the same compound, the “CNT (%)” value ([6]; 3D, oxaliplatin 10 μg/mL) was 66.7%, the “drug sensitivity, cell structures compared with 2D cultures” value [6, 12] was “drug sensitivity was lower” and the “CNT (%)” value ([7]; 2D, oxaliplatin 10 μg/mL) was 22.0%. The “CNT (%)” value ([7]; 2D, oxaliplatin 100 μg/mL) was 10.3%, the “CNT (%)” value ([7]; 3D, oxaliplatin 10 μg/mL) was 45.9% and the “CNT (%)” value ([7]; 3D, oxaliplatin 100 μg/mL) was 17.7%. For the same compound, the “drug sensitivity, cell structures compared with 2D cultures” value [7, 12] was “drug sensitivity was lower”, the “CNT (%) Average value” ([8]; 2D, oxaliplatin 10 μg/mL) was 39.4% and the “CNT (%) Average value” ([8]; 2D, oxaliplatin 100 μg/mL) was 16.0%. The “CNT (%) Average value” ([8]; 3D, oxaliplatin 10 μg/mL) was 63.6%, the “CNT (%) Average value” ([8]; 3D, oxaliplatin 100 μg/mL) was 31.9% and the “CNT (%) Average value” ([8]; Spheroid, oxaliplatin 10 μg/mL) was 48.2%. The “CNT (%) Average value” [8, 13] was 22.3%, the “CNT (%) Average value” ([9]; 2D, oxaliplatin 10 μg/mL) was 23.8% and the “CNT (%) Average value” ([9]; 2D, oxaliplatin 100 μg/mL) was 11.3%. For the same compound, the “CNT (%) Average value” ([9]; 3D, oxaliplatin 10 μg/mL) was 54.1%, the “CNT (%) Average value” ([9]; 3D, oxaliplatin 100 μg/mL) was 35.6% and the “CNT (%) Average value” ([9]; Spheroid, oxaliplatin 10 μg/mL) was 51.8%. For the same compound, the “CNT (%) Average value” [9, 13] was 18.8%, the “CNT (%) Average value” ([10]; HUVEC content 0.05 %, vascular network not formed) was 30.3% and the “CNT (%) Average value” ([10]; HUVEC content 0.25 %, vascular network formed) was 33.4%. For the same compound, the “CNT (%) Average value” ([10]; HUVEC content 0.5 %, vascular network formed) was 35.7%, the “CNT (%) Average value” ([10]; HUVEC content 1.5 %, vascular network formed) was 33.8% and the “CNT (%) Average value” ([11]; culture time 24 h after lamination of cancer cell layer, 72 hours) was 36.0%. For the same compound, the “CNT (%) Average value” ([11]; culture time 48 h after lamination of cancer cell layer, 72 hours) was 36.3%, the “CNT (%) Average value” ([11]; culture time 72 h after lamination of cancer cell layer) was 37.0% and the “CNT (%) Average value” ([11]; culture time 96 h after lamination of cancer cell layer, 72 hours) was 33.8%.
